Data as given in US6770635B1, “Method for medicating the inflammatory controlling system and adverse inflammatory reactions and for making compounds for treating the pathology of adverse inflammatory reactions” (Pharos Pharmaceuticals, priority 1995, dated 2004).

Columns and labels:
[1] = stability of BD2K1 in water (deuterium oxide), 500 MHz NMR; format: physicochemical; conditions: for After One Week (share of ingredient in the solution by NMR) / Initially % (share of ingredient in the solution by NMR): BD2K1 in deuterium oxide, room temperature about 27° C.
Description: A sample of BD2K1 made according to Example 1. Five mcg of the sample was dissolved in one ml of deuterium oxide and the solution was stored in a tightly capped screw capped tube maintained at room temperature which is about 27° C. Deuterium was used as the water source because it facilitates the NMR determinations of chemical configuration. The solution sample was scanned by 500 MHz NMR initially and after one week.

[2] = stabilizing effect of glucose added to BD2K1-deuterium oxide mixtures, NMR; format: physicochemical; conditions: for level at which di-β-glucosamine equilibrates: 20% or more glucose in the mixture, in water, first week; for percent of total composition in the stationary equilibrium: 95% BD2K1 sample in water without glucose, one week
Description: This experiment measures the stabilizing effect of glucose when added to the BD2K1 -deuterium oxide mixtures at room temperature. Various amounts of α-D-glucose were added to the similar starting mixtures in Example 3 and the NMRs were recorded to determine the percent changes of the total composition as a function of time.

[3] = storage of BD2K1 in a desiccated container; format: physicochemical; conditions: room temperature
[4] = general statements on stability at alkaline pH and in body fluids; format: physicochemical
[5] = tested on: mice immunologically sensitive to a specific water soluble chemical; experiment: Inflammatory Controlling System (ICS) assay; format: in vivo
Description: An example of BD2K1 being synthesized in another area than in the intestine is seen in a mouse study which was conducted involving the Inflammatory Controlling System (ICS). ICS assay is done in mice immunologically sensitive to a specific water soluble chemical. When these mice are challenged intravenously with a sublethal dose of the chemical, below the toxicity level for non-sensitive mice, they immediately respond with an adverse immune reaction. Result is an acute pancreatitis, shock and death. […] The assay involves glucose controls which are administrated intraperitoneally at three times. The first is early (i.e., 3 hours) before the antigen challenge. The second is one hour before the challenge and the third is at zero hour (i.e., when the challenge is done). […] However, for the case where glucose was injected at the zero hour and one hour before the challenge there was no effect.
A further study in mice was conducted to test the effect of glucose in mice by various routes of administration in the ICS assay test. The glucose was administrated by four different routes: intraperitoneal, intravenous, subcutaneous and oral.

[6] = tolerability statements for BD2K (topical, parenteral use); format: in vivo

SMILES | After One Week (share of ingredient in the solution by NMR) [1] [%] | Initially % (share of ingredient in the solution by NMR) [1] [%] | reduction of BD2K1 to the starting material glucose ([1]; by adding water) [%] | level at which di-β-glucosamine equilibrates [2] [%] | level at which di-β-glucosamine equilibrates ([2]; listed as di-β-glucosamine) | time the equilibrium level is kept ([2]; 20% or more glucose, sealed container) | percent of total composition in the stationary equilibrium [2] | decomposition on storage [3] | stability in body fluids ([4]; body fluids) | stability at high alkaline pH ([4]; high alkaline pH) | protection against the acute pancreatitis ([5]; BD2K1 controls of the route study) | protection from death on challenge ([5]; sensitive mice, intravenous sublethal antigen challenge) | irritation ([6]; applied topically) | IgE levels in patient sera ([6]; patient sera) | toxicity ([6]; used parentally)
OC[C@H]1O[C@@H](N[C@@H]2O[C@H](CO)[C@@H](O)[C@H](O)[C@H]2O)[C@H](O)[C@@H](O)[C@@H]1O [BD2K1, di-Beta-D-glucopyranosylamine] | 62 | 92 | 33 | 80 | about 80% | at least five years | 62% | does not decompose | not very stable | extremely stable | good protection | protects these sensitive mice from death | without any irritation | without elevating IgE levels | no indication of toxicity
OC[C@H]1O[C@H](O)[C@H](O)[C@@H](O)[C@@H]1O [α-glucose] | 10 | 0 |  |  |  |  |  |  |  |  |  |  |  |  | 
c1cnccn1 [pyrazine] | 1 | 1 |  |  |  |  | less than 1% |  |  |  |  |  |  |  | 
OC[C@H]1O[C@@H](O)[C@H](O)[C@@H](O)[C@@H]1O [β-glucose] | 18 | 0 |  |  |  |  |  |  |  |  |  |  |  |  | 
